Reference: ChEMBL document CHEMBL3612033, “Synthesis of 3,4-diaminobenzoyl derivatives as factor Xa inhibitors” (Eur J Med Chem, 2015)

What was measured:
[1] = molecular target: T1, Coagulation factor X (Oryctolagus cuniculus) (UniProt O19045); assay: Inhibition of F10a in rabbit plasma assessed as ratio of compound prothrombin time to vehicle control prothrombin time at 100 nM after 2 mins by automatic coagulation analyser
T1 sequence (whole entry): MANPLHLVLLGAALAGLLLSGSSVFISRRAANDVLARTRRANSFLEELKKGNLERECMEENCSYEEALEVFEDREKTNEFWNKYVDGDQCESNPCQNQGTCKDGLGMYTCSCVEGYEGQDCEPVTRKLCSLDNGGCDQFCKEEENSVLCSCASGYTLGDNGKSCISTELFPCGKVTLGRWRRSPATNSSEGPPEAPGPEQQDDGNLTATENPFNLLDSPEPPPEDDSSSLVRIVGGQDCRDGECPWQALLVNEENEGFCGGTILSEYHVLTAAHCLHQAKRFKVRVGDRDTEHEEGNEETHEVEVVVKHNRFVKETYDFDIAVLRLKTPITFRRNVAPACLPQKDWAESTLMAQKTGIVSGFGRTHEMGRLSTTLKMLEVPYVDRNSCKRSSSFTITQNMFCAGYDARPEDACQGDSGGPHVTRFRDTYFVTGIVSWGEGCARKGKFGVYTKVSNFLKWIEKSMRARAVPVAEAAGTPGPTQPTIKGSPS

Trypsin = Trypsin (Homo sapiens, UniProt P07477+P07478+P35030); assay: Inhibition of trypsin (unknown origin) using S-2222 as substrate; assay type: protein assay
Coagulation factor X = Coagulation factor X (Homo sapiens, UniProt P00742); assay: Inhibition of human F10a using S-2765 as substrate preincubated for 10 mins followed by substrate addition by microplate reader analysis
Chain of Coagulation factor X (P00742 41-179 limits assumed): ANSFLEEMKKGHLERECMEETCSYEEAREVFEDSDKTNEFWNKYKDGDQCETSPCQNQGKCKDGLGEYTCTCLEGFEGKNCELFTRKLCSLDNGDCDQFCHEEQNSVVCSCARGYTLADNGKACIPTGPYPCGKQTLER
Chain of Coagulation factor X (P00742 235-488 limits assumed): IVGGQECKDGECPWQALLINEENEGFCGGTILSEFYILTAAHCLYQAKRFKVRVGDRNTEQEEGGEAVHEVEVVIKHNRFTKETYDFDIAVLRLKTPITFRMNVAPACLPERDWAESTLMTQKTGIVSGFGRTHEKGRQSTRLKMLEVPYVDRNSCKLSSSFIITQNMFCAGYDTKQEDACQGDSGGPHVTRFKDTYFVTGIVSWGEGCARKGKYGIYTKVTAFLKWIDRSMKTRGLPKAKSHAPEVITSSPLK

Prothrombin = Prothrombin (Bos taurus, UniProt P00735); assay: Inhibition of bovine plasma thrombin using S-2238 as substrate

Row | SMILES | Ratio [1] | other results
1 | NC(=O)c1ccc(NC(=O)c2ccc(-n3ccccc3=O)cc2)c(NC(=O)c2ccc(Cl)s2)c1 | 1.33 | 
2 | NC(=O)c1ccc(NC(=O)c2ccc(-n3ccccc3=O)cc2)c(NC(=O)c2ccc(NC=O)cc2)c1 | 1.54 | 
3 | COc1cc(C(=O)Nc2cc(C(=O)O)ccc2NC(=O)c2ccc(-n3ccccc3=O)cc2)cc(OC)c1OC | 1.15 | 
4 | COc1ccc(C(=O)Nc2cc(C(N)=O)ccc2NC(=O)c2ccc(-n3ccccc3=O)cc2)cc1OC | 1.94 | IC50 (Trypsin): > 100 µM; IC50 (Coagulation factor X): 0.0171 µM; IC50 (Prothrombin): > 100 µM
5 | COc1cc(C(=O)Nc2cc(C(N)=O)ccc2NC(=O)c2ccn(-c3ccccc3)c(=O)c2)cc(OC)c1OC | 2.1 | 
6 | COc1cc(C(=O)Nc2cc(C(N)=O)ccc2NC(=O)c2ccc(N3CCCC3=O)cc2)cc(OC)c1OC | 1.27 | 
7 | COc1cc(C(=O)Nc2cc(C(N)=O)ccc2NC(=O)c2ccc(-n3ccccc3=O)cc2)cc(OC)c1OC | 2.06 | IC50 (Coagulation factor X): 0.0286 µM
8 | NC(=O)c1ccc(NC(=O)c2ccc(-n3ccccc3=O)cc2)c(NC(=O)c2ccc(Br)cc2)c1 |  | IC50 (Coagulation factor X): 0.0259 µM
9 | NC(=O)c1ccc(NC(=O)c2ccc(-n3ccccc3=O)cc2)c(NC(=O)c2ccc(F)cc2)c1 | 1.27 | 
10 | NC(=O)c1ccc(NC(=O)c2ccc(-n3ccccc3=O)cc2)c(NC(=O)c2ccc3ncoc3c2)c1 | 1.66 | 
11 | NC(=O)c1ccc(NC(=O)c2ccc(-n3ccccc3=O)cc2)c(NC(=O)c2ccc(Cl)nc2)c1 | 1.27 | 
12 | COc1cc(C(=O)Nc2cc(C(N)=O)ccc2NC(=O)c2ccc(N3CCCCC3=O)cc2)cc(OC)c1OC | 1.16 | 
13 | CCOC(=O)c1ccc(NC(=O)c2ccc(-n3ccccc3=O)cc2)c(NC(=O)c2cc(OC)c(OC)c(OC)c2)c1 | 1.21 | 
14 | CC(=O)Nc1ccc(C(=O)Nc2cc(C(N)=O)ccc2NC(=O)c2ccc(-n3ccccc3=O)cc2)cc1 | 1.72 | IC50 (Coagulation factor X): 0.0156 µM
15 | NC(=O)c1ccc(NC(=O)c2ccc(-n3ccccc3=O)cc2)c(NC(=O)c2ccc(Cl)cc2)c1 | 1.88 | 
16 | COc1cc(C(=O)Nc2ccc(C(N)=O)cc2NC(=O)c2ccc(-n3ccccc3=O)cc2)cc(OC)c1OC | 1.07 | 
17 | NC(=O)c1ccc(NC(=O)c2ccc(-n3ccccc3=O)cc2)c(NC(=O)c2ccc(Cl)c(Cl)c2)c1 |  | IC50 (Coagulation factor X): 0.0065 µM
18 | COc1ccc(C(=O)Nc2cc(C(N)=O)ccc2NC(=O)c2ccc(-n3ccccc3=O)cc2)cc1 | 1.87 | 
